Assay results as given in paper PMC9098913, “In vitro reconstitution of Escherichia coli divisome activation” (Nature Communications, 2022).

What was measured:
FtsZ [1] = conditions: […] Tris-NTA; p-value 3.86 × 10^−4; three repeats
Method: (§1) Co-treadmilling of FtsA with FtsZ relies on the dynamic exchange of FtsA on the membrane. […] To investigate the respective contributions of membrane binding kinetics and FtsA self-interaction on the colocalization dynamics with FtsZ, we wanted to create variants of the two FtsA proteins that are permanently attached to the membrane. […] Accordingly, in these experiments the proteins only differ in their tendency to form oligomers.
(§2) To study colocalization of His-tagged variants of FtsA, 0.5–1 µM of Cy5 labelled His-tagged FtsAs were added to the chamber, incubated for 20 min and washed 6x with reaction buffer. […] To control the density of membrane-bound FtsA, SUVs without and with Tris-NTA lipids were mixed to obtain the respective Tris-NTA concentrations. To perform FRET/FRAP experiments, equimolar concentrations of Cy3 and Cy5 labelled His-tagged FtsAs (total 0.5–1 µM) or His-SUMO-Cys were added to a chamber and treated as above. […] FRAP experiments were performed as described before.
Time-lapse videos were first intensity-corrected and contrast-enhanced to avoid bleaching effects and simplify subsequent analysis. To remove contributions of X–Y drift, the videos were processed with the Linear Stack Alignment with SIFT plugin. Proper alignment was checked with the 3TP align plugin (J. A. Parker; Beth Israel Deaconess Medical Center, Boston). Subsequently, regions of interest (ROIs) in the center of the stacks were chosen for colocalization analysis. The Pearson’s correlation coefficient (PCC) was quantified with the Image CorrelationJ 1o plugin. To extract information about the relative ratio of FtsZ/FtsA molecules (slope of linear regression), we also used the Image CorrelationJ 1o plugin. As an output, the plugin provides a scatterplot of FtsZ vs FtsA intensities, to which we fitted a linear slope y=k⋅x+d , where k is the slope and d the offset. The slope was used as an estimate for the ratio of FtsA molecules below FtsZ filaments.

[2] = Membrane off-binding rate (koff) of FtsA from FRAP; parameters: Off binding rate koff: unit not given here; conditions: Fig. S4i
Text: We could also use the data from these bleaching experiments to quantify the membrane-binding kinetics and diffusion of membrane-bound proteins by analysing the change of the fluorescence profile during recovery.
Equimolar concentrations of Cy3- and Cy5-labelled FtsA, supplemented with 20% unlabelled FtsA were used to study FRET and FRAP. Five pre-bleach frames were acquired, followed by acceptor photobleaching of a rectangular ROI with 40% 641 nm laser power and a dwell size of 1 µs/pixel, 75% overlapping lines. The recovery of the signal or the increase in donor intensity were measured with either two frames or one frame per second.
Bleaching the acceptor dye leads to an increase in the donor intensity, which can be used to quantify the Foerster Resonance energy transfer (FRET)[48]. FRET efficiency was quantified with E%=Ipost/Ipost+Ipre⋅100 , where Ipost is the intensity of the […] and Ipre is the […]. […] To extract the contribution of both processes, we adjusted a routine recently published by Gerganova et al.[33]. In short, the code provides the contribution of both modes of recovery by analysing the shape of the fluorescence recovery profile. […] Contribution of diffusion leads to a change of the slope of the outer borders of the bleached region (S4h right). Thus, by measuring the change of the slope of the border recovery, diffusion and simple on/off binding can be distinguished. We developed “FRAPdiff”, a graphical user interface, which uses the original fit routine by David Rutkowski. It can be used directly on.tiff movies with annotated bleach regions as ImageJ ROIs. In addition, we added optional bleach correction, user selectable projection axis (x or y), and optional mirroring of the recovery profiles, if bleaching was not symmetric. The original fit routine for estimating the recovery and diffusion dynamics can be found at https://github.com/davidmrutkowski/1DReflectingDiffusion. FRAPdiff is available at 10.5281/zenodo.6400639[49] under the GPLv3 open-source license.

FtsZ [3] = conditions: […] Tris-NTA; p-value […] 10^−4 (vs WT-His6); 7.78 × 10^−5 (vs R286W); three repeats
Method: as §1, §2
Treadmilling dynamics, were quantified using an automated image analysis protocol previously developed by our group. To visualize colocalization of the co-treadmilling FtsZ & FtsA filaments, we used dual-colour videos obtained at an acquisition rate of one frame per 2 s. The two channels were aligned using FIJI’s 3TP align plugin. Both channels were then subjected to the image subtraction protocol and colocalization was measured as described above.

Question: With “FtsA-His6: FtsA WT (1-405) with amphipathic helix replaced by C-terminal His-tag” as the substance, how does the “PCC His-tagged FtsA/FtsZ” value (FtsZ [1]) read?
Answer: 0.13 ± 0.06

Question: And the “Off binding rate koff” value ([2]; 0.10 % Tris-NTA lipids, + FtsZ, summary value)?
Answer: 0.0359

Question: And the “Off binding rate koff” value ([2]; 0.10 % Tris-NTA lipids, replicate 1)?
Answer: 0.020

Question: And the “Off binding rate koff” value ([2]; 0.10 % Tris-NTA lipids, replicate 2)?
Answer: 0.006

Question: And the “Off binding rate koff” value ([2]; 0.10 % Tris-NTA lipids, without FtsZ, summary value)?
Answer: 0.0131

Question: And the “Off binding rate koff” value ([2]; 0.40 % Tris-NTA lipids, + FtsZ, summary value)?
Answer: 0.0068

Question: And the “Off binding rate koff” value ([2]; 0.40 % Tris-NTA lipids, without FtsZ, summary value)?
Answer: 0.0123

Question: And the “Off binding rate koff” value ([2]; 0.60 % Tris-NTA lipids, + FtsZ, summary value)?
Answer: 0.0048

Question: What about the “Off binding rate koff” value ([2]; 0.60 % Tris-NTA lipids, without FtsZ, summary value) of the same substance?
Answer: 0.0097

Question: And the “Off binding rate koff” value ([2]; […] Tris-NTA lipids, + FtsZ, summary value)?
Answer: 0.0182

Question: What about the “Off binding rate koff” value ([2]; […] Tris-NTA lipids, replicate 1) of the same substance?
Answer: 0.0017

Question: What about the “Off binding rate koff” value ([2]; […] Tris-NTA lipids, replicate 2) of the same substance?
Answer: 0.018

Question: What about the “Off binding rate koff” value ([2]; […] Tris-NTA lipids, without FtsZ, summary value) of the same substance?
Answer: 0.0098

Question: What about the “PCCdiff His-tagged FtsA/FtsZ” value (FtsZ [3]) of the same substance?
Answer: 0.07 ± 0.04
